Laboratory results as given in EPA's ToxValDB 9.5.

Test system: Rattus norvegicus
Details: short-term, duration: 28 days, oral, gavage, Sprague-Dawley

In the case of O=S(=O)(O)C(F)(F)C(F)(F)C(F)(F)C(F)(F)F [Perfluorobutanesulfonic acid], the LOEL (F, Clinical chemistry_Alanine aminotransferase) is reported as 250 mg/kg-day, the NOEL (F, Clinical chemistry_Albumin) is reported as 1000 mg/kg-day and the NOEL (F, Clinical chemistry_Albumin/globulin ratio) is reported as 1000 mg/kg-day. The LOEL (F, Clinical chemistry_Alkaline phosphatase) was 500 mg/kg-day, the LOEL (F, Clinical chemistry_Aspartate aminotransferase) was 500 mg/kg-day and the LOEL (F, Clinical chemistry_Cholesterol) was 500 mg/kg-day. It also gave an LOEL (F, Clinical chemistry_Direct bilirubin) of 500 mg/kg-day, an LOEL (F, Clinical chemistry_Free thyroxine) of 62.6 mg/kg-day and an NOEL (F, Clinical chemistry_Globulin) of 1000 mg/kg-day. It also gave an NOEL (F, Clinical chemistry_Sorbitol dehydrogenase) of 1000 mg/kg-day, an NOEL (F, Clinical chemistry_Testosterone) of 1000 mg/kg-day and an NOEL (F, Clinical chemistry_Thyroid stimulating hormone) of 1000 mg/kg-day. It also gave an LOEL (F, Clinical chemistry_Total bile acids) of 250 mg/kg-day, an LOEL (F, Clinical chemistry_Total bilirubin) of 500 mg/kg-day and an NOEL (F, Clinical chemistry_Total protein) of 1000 mg/kg-day. For the same molecule, the LOEL (F, Clinical chemistry_Total thyroxine) was 62.6 mg/kg-day, the LOEL (F, Clinical chemistry_Total triiodothyronine) was 62.6 mg/kg-day and the NOEL (F, Clinical chemistry_Triglycerides) was 1000 mg/kg-day. The LOEL (F, Gene expression_Acox1) was 250 mg/kg-day, the LOEL (F, Gene expression_Cyp2b1) was 62.6 mg/kg-day and the LOEL (F, Gene expression_Cyp2b2) was 62.6 mg/kg-day. It also gave an LOEL (F, Gene expression_Cyp4a1) of 62.6 mg/kg-day, an NOEL (F, Hematology_Erythrocytes) of 1000 mg/kg-day and an NOEL (F, Hematology_Hematocrit) of 1000 mg/kg-day. For the same molecule, the NOEL (F, Hematology_Hemoglobin) was 1000 mg/kg-day, the NOEL (F, Hematology_Leukocytes) was 1000 mg/kg-day and the LOEL (F, Hematology_Reticulocytes) was 125 mg/kg-day. The NOEL (F, Hematology_S. neutrophils) was 1000 mg/kg-day, the LOEL (F, Nonneoplastic effects_Bone marrow - Hypocellularity) was 1000 mg/kg-day and the LOEL (F, Nonneoplastic effects_Kidney - Papilla, necrosis) was 1000 mg/kg-day. The LOEL (F, Nonneoplastic effects_Liver - Hepatocyte, cytoplasmic alteration) was 500 mg/kg-day, the LOEL (F, Nonneoplastic effects_Liver - Hepatocyte, hypertrophy) was 500 mg/kg-day and the NOEL (F, Nonneoplastic effects_Liver - Hepatocyte, vacuolization cytoplasmic) was 1000 mg/kg-day. It also gave an LOEL (F, Nonneoplastic effects_Liver - Necrosis) of 1000 mg/kg-day, an LOEL (F, Nonneoplastic effects_Nose - Olfactory epithelium, degeneration) of 125 mg/kg-day and an LOEL (F, Nonneoplastic effects_Nose - Olfactory epithelium, hyperplasia) of 250 mg/kg-day. It also gave an LOEL (F, Nonneoplastic effects_Nose - Olfactory epithelium, inflammation, suppurative) of 1000 mg/kg-day, an LOEL (F, Nonneoplastic effects_Nose - Olfactory epithelium, necrosis) of 1000 mg/kg-day and an NOEL (F, Nonneoplastic effects_Spleen - Extramedullary hematopoiesis, decreased) of 1000 mg/kg-day. For the same molecule, the NOEL (F, Nonneoplastic effects_Stomach, forestomach - Epithelium, hyperplasia) was 1000 mg/kg-day, the LOEL (F, Nonneoplastic effects_Thymus - Atrophy) was 1000 mg/kg-day and the LOEL (F, Organ weights_Heart - Absolute) was 500 mg/kg-day. For the same molecule, the NOEL (F, Organ weights_Heart - Relative) was 1000 mg/kg-day, the LOEL (F, Organ weights_Liver - Absolute) was 250 mg/kg-day and the LOEL (F, Organ weights_Liver - Relative) was 125 mg/kg-day. For the same molecule, the NOEL (F, Organ weights_Lung - Absolute) was 1000 mg/kg-day, the NOEL (F, Organ weights_Lung - Relative) was 1000 mg/kg-day and the NOEL (F, Organ weights_R. adrenal gland - Absolute) was 1000 mg/kg-day. For the same molecule, the NOEL (F, Organ weights_R. adrenal gland - Relative) was 1000 mg/kg-day, the NOEL (F, Organ weights_R. kidney - Absolute) was 1000 mg/kg-day and the LOEL (F, Organ weights_R. kidney - Relative) was 62.6 mg/kg-day. For the same molecule, the LOEL (F, Organ weights_Spleen - Absolute) was 500 mg/kg-day, the NOEL (F, Organ weights_Spleen - Relative) was 1000 mg/kg-day and the LOEL (F, Organ weights_Thymus - Absolute) was 500 mg/kg-day. The NOEL (F, Organ weights_Thymus - Relative) was 1000 mg/kg-day, the LOEL (F, Reproductive toxicity_Altered estrous cyclicity) was 250 mg/kg-day and the LOEL (F, Survival rates) was 250 mg/kg-day. The LOEL (F, body weight) was 1000 mg/kg-day, the LOEL (M, Clinical chemistry_Alanine aminotransferase) was 500 mg/kg-day and the NOEL (M, Clinical chemistry_Albumin) was 1000 mg/kg-day. The LOEL (M, Clinical chemistry_Albumin/globulin ratio) was 62.6 mg/kg-day, the LOEL (M, Clinical chemistry_Alkaline phosphatase) was 250 mg/kg-day and the LOEL (M, Clinical chemistry_Aspartate aminotransferase) was 500 mg/kg-day. For the same molecule, the LOEL (M, Clinical chemistry_Cholesterol) was 62.6 mg/kg-day, the LOEL (M, Clinical chemistry_Direct bilirubin) was 500 mg/kg-day and the LOEL (M, Clinical chemistry_Free thyroxine) was 62.6 mg/kg-day. It also gave an LOEL (M, Clinical chemistry_Globulin) of 62.6 mg/kg-day, an LOEL (M, Clinical chemistry_Sorbitol dehydrogenase) of 500 mg/kg-day and an NOEL (M, Clinical chemistry_Testosterone) of 1000 mg/kg-day. It also gave an NOEL (M, Clinical chemistry_Thyroid stimulating hormone) of 1000 mg/kg-day, an LOEL (M, Clinical chemistry_Total bile acids) of 500 mg/kg-day and an NOEL (M, Clinical chemistry_Total bilirubin) of 1000 mg/kg-day. The LOEL (M, Clinical chemistry_Total protein) was 62.6 mg/kg-day, the LOEL (M, Clinical chemistry_Total thyroxine) was 62.6 mg/kg-day and the LOEL (M, Clinical chemistry_Total triiodothyronine) was 62.6 mg/kg-day. The LOEL (M, Clinical chemistry_Triglycerides) was 500 mg/kg-day, the LOEL (M, Gene expression_Acox1) was 125 mg/kg-day and the LOEL (M, Gene expression_Acyl-CoA oxidase) was 250 mg/kg-day. For the same molecule, the LOEL (M, Gene expression_Cyp2b1) was 62.6 mg/kg-day, the LOEL (M, Gene expression_Cyp2b2) was 62.6 mg/kg-day and the LOEL (M, Gene expression_Cyp4a1) was 62.6 mg/kg-day. For the same molecule, the LOEL (M, Hematology_Erythrocytes) was 125 mg/kg-day, the LOEL (M, Hematology_Hematocrit) was 125 mg/kg-day and the LOEL (M, Hematology_Hemoglobin) was 125 mg/kg-day. The NOEL (M, Hematology_Leukocytes) was 1000 mg/kg-day, the LOEL (M, Hematology_Reticulocytes) was 125 mg/kg-day and the NOEL (M, Hematology_S. neutrophils) was 1000 mg/kg-day. It also gave an LOEL (M, Nonneoplastic effects_Bone marrow - Hypocellularity) of 1000 mg/kg-day, an LOEL (M, Nonneoplastic effects_Kidney - Papilla, necrosis) of 1000 mg/kg-day and an LOEL (M, Nonneoplastic effects_Liver - Hepatocyte, cytoplasmic alteration) of 500 mg/kg-day. The LOEL (M, Nonneoplastic effects_Liver - Hepatocyte, hypertrophy) was 125 mg/kg-day, the NOEL (M, Nonneoplastic effects_Liver - Hepatocyte, vacuolization cytoplasmic) was 1000 mg/kg-day and the LOEL (M, Nonneoplastic effects_Liver - Necrosis) was 1000 mg/kg-day. For the same molecule, the LOEL (M, Nonneoplastic effects_Nose - Olfactory epithelium, degeneration) was 250 mg/kg-day, the LOEL (M, Nonneoplastic effects_Nose - Olfactory epithelium, hyperplasia) was 250 mg/kg-day and the LOEL (M, Nonneoplastic effects_Nose - Olfactory epithelium, inflammation, suppurative) was 1000 mg/kg-day. The LOEL (M, Nonneoplastic effects_Nose - Olfactory epithelium, necrosis) was 1000 mg/kg-day, the NOEL (M, Nonneoplastic effects_Spleen - Extramedullary hematopoiesis, decreased) was 1000 mg/kg-day and the LOEL (M, Nonneoplastic effects_Stomach, forestomach - Epithelium, hyperplasia) was 1000 mg/kg-day. The LOEL (M, Nonneoplastic effects_Thymus - Atrophy) was 1000 mg/kg-day, the LOEL (M, Organ weights_Heart - Absolute) was 500 mg/kg-day and the LOEL (M, Organ weights_Heart - Relative) was 500 mg/kg-day. It also gave an LOEL (M, Organ weights_Liver - Absolute) of 125 mg/kg-day, an LOEL (M, Organ weights_Liver - Relative) of 62.6 mg/kg-day and an NOEL (M, Organ weights_Lung - Absolute) of 1000 mg/kg-day. For the same molecule, the NOEL (M, Organ weights_Lung - Relative) was 1000 mg/kg-day, the NOEL (M, Organ weights_R. adrenal gland - Absolute) was 1000 mg/kg-day and the NOEL (M, Organ weights_R. adrenal gland - Relative) was 1000 mg/kg-day. For the same molecule, the LOEL (M, Organ weights_R. kidney - Absolute) was 500 mg/kg-day, the LOEL (M, Organ weights_R. kidney - Relative) was 500 mg/kg-day and the NOEL (M, Organ weights_Spleen - Absolute) was 1000 mg/kg-day. It also gave an NOEL (M, Organ weights_Spleen - Relative) of 1000 mg/kg-day, an LOEL (M, Organ weights_Thymus - Absolute) of 500 mg/kg-day and an LOEL (M, Organ weights_Thymus - Relative) of 500 mg/kg-day. It also gave an NOEL (M, Reproductive toxicity_Altered sperm parameters) of 1000 mg/kg-day, an LOEL (M, Survival rates) of 1000 mg/kg-day and an LOEL (M, body weight) of 1000 mg/kg-day.
